Data set [1] in a line: Solubility of the active in the receptor fluid. The following applies: not told, aqueous with cosolvent or surfactant or cyclodextrin; 96 wt % PBS at pH 7.4 and 4 wt % hydroxyl propyl beta cyclodextrin. In kind it is physicochemical. Here is the method:
The receptor fluid was degassed by filtering the receptor fluid through a ZapCap CR 0.2 μm membrane while pulling vacuum. The filtered receptor fluid was stirred for an additional 20 minutes while maintaining vacuum to ensure complete degassing.

The test system of data set [2] is UM-UC-3 bladder cancer cell line. In words: Human bladder cancer (UM-UC-3) mouse xenograft study: tumor volume. In kind it is in vivo, Hsd:Athymic Nude-Foxnlnu nude mice. Here is the method:
Tumor volume was determined with calipers. […] Animals were weighed 2×/week.
At day 18 after tumor implant, when average tumor size was between 50-325 mm^3, animals were sorted into five groups with equal average tumor sizes and were treated as shown in Table 25 below.
The second treatments (2nd cycle) occurred 7 days following first treatment (1st cycle) and third treatments (3rd cycle) occurred 14 days following the first treatment. The docetaxel solution IV was administered via the tail vein.
Vehicle (Control): Diluted 1 ml of the 1% Polysorbate 80/8% Ethanol in normal saline (0.9% Sodium Chloride for Injection) reconstitution solution with 1.5 mL of normal saline (0.9% Sodium Chloride for Injection, USP). […] Vigorously hand shook the vial with inversions for 1 minute. […] Allowed the suspension to sit undisturbed for at least 5 minutes to reduce entrapped air and foam. […] Vortexed to mix.
(In general: A xenograft is tissue or cells of one species grown in another, often human tumour cells in immunodeficient mice.)

In data set [3] the test system is 786-O cell line. The data set can be described thus: Rat xenograft model of human renal cell adenocarcinoma: tumor volume. Particulars: IV docetaxel, 3 weekly cycles. In kind it is in vivo, Sprague-Dawley Rag2; Il2rg null (SRG) rat.
The test system of data set [4] is 786-O cell line. In words: Renal cell adenocarcinoma xenograft: histology and immunohistochemistry (viable carcinoma size, necrosis, lymphohistiocytic infiltrate). Type of data set: in vivo, Sprague-Dawley Rag2; Il2rg null (SRG) rat. From the text: Microscopic Examination: Tissues fixed with 10% NBF were embedded in paraffin. Each tumor was cut into 2-3 pieces and embedded and sectioned together.

The test system of data set [5] is UM-UC-3 bladder cancer cell line. The data set can be described thus: Bladder cancer xenograft study: histology and immunohistochemistry (viable carcinoma size, necrosis, macrophage infiltrate, TLS, necropsy volume).
Procedure: Tumors were implanted with 1×10^7 cells (1004, volume) into right flank (PBS 1:1 with matrigel: BD356234). Tumor volume was determined with calipers. Formula: V=(r length*r width*r height)*π*4/3. Animals were weighed 2×/week. Tumor volumes were determined every 3 to 4 days following tumor implant (total of ˜20 measurements) and on day of euthanasia. Photo images of tumors were obtained at 2, 3 and 4 weeks post implantation and on day of euthanasia. Animals were euthanized once the tumor reached a size of 3,000 mm^3 or up to the point of significant tumor ulceration. At the time of euthanasia, tumors were isolated and halved. […] The second half of the tumor was fixed in formalin. Two H&E stained slides/tumor were prepared (up to 4 tumor/group were processed).
Tumor tissue was fixed before H&E and IHC staining. Bladder tissue sections were deparaffinized and processed by standard H&E and IHC staining. At least four tumors per treatment group were processed.
Setting [6] is: IV Docetaxel 3 cycles, 2 animals.

≈ marks a conversion by molar mass, not a printed value. Where “and” joins values, the source holds several entries; their conditions need not be identical. Equal values may be shown once. Marks after values point to notes of the source that are not given here.

Broadly, the solubility is the concentration that dissolves in the medium under given conditions. As to `CC(=O)O[C@H]1C(=O)[C@@]2(C)[C@H]([C@H](OC(=O)c3ccccc3)[C@]3(O)C[C@H](OC(=O)[C@H](O)[C@@H](NC(=O)c4ccccc4)c4ccccc4)C(C)=C1C3(C)C)[C@]1(OC(C)=O)CO[C@@H]1C[C@@H]2O` [paclitaxel], the solubility in data set [1] is around 0.4 µg/mL (≈ 0.468 µM).
On to `CC(=O)O[C@@]12CO[C@@H]1C[C@H](O)[C@@]1(C)C(=O)[C@H](O)C3=C(C)[C@@H](OC(=O)[C@H](O)[C@@H](NC(=O)OC(C)(C)C)c4ccccc4)C[C@@](O)([C@@H](OC(=O)c4ccccc4)[C@H]21)C3(C)C` [Docetaxel, docetaxel], for which the “Tumor volume over time” value in data set [2] (Docetaxel IV 30 mg/kg, 3 weekly cycles, 61 days) was “decreased initially for dosages of nDoce IT 1 cycle and Docetaxel IV 3 cycles, but subsequently increased”. Moreover, the “Effectiveness in relation to initial tumor size” value in data set [2] (Docetaxel IV 3 cycles) is “somewhat effective at treating small tumors, but not very effective in treating large tumors”. The “tumor growth vs vehicle control” value with 786-O cell line [3] is listed as “partial tumor growth inhibition compared to vehicle control”. Moreover, the “Histology overview (H&E) vs vehicle control” value in the data set on 786-O cell line [4] (Docetaxel (IV) 3 cycles, FIG. 93) is listed as “no difference”. Also, in the data set on 786-O cell line [4] (IV docetaxel, two cases), the “morphologic and immunohistochemical appearance” value was “identical morphologic and immunohistochemical appearance to that seen in the control and IT vehicle groups”. Also, in the data set with 786-O cell line [4] (IV docetaxel, 2 animals), the “Size of residual viable carcinoma on slide: number of animals with >10 mm” value is 2. Also, in the data set with 786-O cell line [4] (both IV docetaxel animals), the “residual viable carcinoma nodules, size” value was “greater than 10 mm”. The “Histological overview, general observations (H&E)” value in data set [5] (Docetaxel Solution IV 3 cycles) was “many viable appearing tumor masses with some macrophage and occasional lymphocytic response along with some tumor necrosis”. For the same compound, in data set [5] (FIG. 87, IV Docetaxel 3 cycles), the “Immunohistochemistry overview, F4/80 stain” value was “Very little tumor cell destruction and few scattered mononuclear immune cells among vast number of viable tumor cells”. In addition, in data set [5] (setting [6]), the “# containing at least one TLS” value was found to be 0, the “Maximum size of viable invasive carcinoma on the slide >10 mm (number of animals)” value is recorded as 2*, the “Percentage of tumor showing necrosis: number of animals with 11-50%” value was determined as 1 and the “Percentage of tumor showing necrosis: number of animals with 50-90%” value came to 1. Moreover, in data set [5] (IV Docetaxel 3 cycles, H&E and CD68), the “Macrophage infiltrate density Mild (number of animals)” value stood at 2. The “Maximum tumor size on slide” value in data set [5] (IV Docetaxel 3 cycles, individual animals B1, B3) was 15 mm and 11 mm. In data set [5] (IV docetaxel 3 cycles), the TLSs result was “There were no TLSs present”; the “tumor mass maximum dimension on the slide, individual cases” value is 11 mm and 15 mm. Also, in data set [5] (IV docetaxel 3 cycles, cases B1 and B3), the “geographic tumor cell necrosis, share of tumor area, individual cases” value was 11-50% and 50-90%.
For `CC(=O)O[C@@]12CO[C@@H]1C[C@H](O)[C@@]1(C)C(=O)[C@H](O)C3=C(C)[C@@H](OC(=O)[C@H](O)[C@@H](NC(=O)OC(C)(C)C)c4ccccc4)C[C@@](O)([C@@H](OC(=O)c4ccccc4)[C@H]21)C3(C)C` [Doce], the “Percentage of tissue showing necrosis: number of animals with 5-50%” value in the data set on 786-O cell line [4] (IV Doce, 2 animals) is on record as 2. Besides, in the data set on 786-O cell line [4] (IV Doce, 2 animals, H/E and CD11b staining), the “Lymphohistiocytic infiltrate density: number of animals graded Mild” value is on record as 2.

Source of the values: US20190365698A1, “Use of Antineoplastic Agents to Stimulate the Immune System for Treatment of Cancer” (CRITITECH, INC., priority 2018, published 2019).
